Measured values from paper PMC3540847 (Journal of Lipid Research, 2012).
Where a name gives a salt, the structure may show the parent alone.

How the values were obtained:
skAsbt = target: T1, skAsbt (Leucoraja erinaceus, UniProt I4CJQ7); assay: competition of 3H-TCA uptake, transfected COS-7 cells; assay type: cell-based; conditions: 10 μM 3H-TCA, Na+ medium, 10 min
T1 sequence (I4CJQ7 1-393): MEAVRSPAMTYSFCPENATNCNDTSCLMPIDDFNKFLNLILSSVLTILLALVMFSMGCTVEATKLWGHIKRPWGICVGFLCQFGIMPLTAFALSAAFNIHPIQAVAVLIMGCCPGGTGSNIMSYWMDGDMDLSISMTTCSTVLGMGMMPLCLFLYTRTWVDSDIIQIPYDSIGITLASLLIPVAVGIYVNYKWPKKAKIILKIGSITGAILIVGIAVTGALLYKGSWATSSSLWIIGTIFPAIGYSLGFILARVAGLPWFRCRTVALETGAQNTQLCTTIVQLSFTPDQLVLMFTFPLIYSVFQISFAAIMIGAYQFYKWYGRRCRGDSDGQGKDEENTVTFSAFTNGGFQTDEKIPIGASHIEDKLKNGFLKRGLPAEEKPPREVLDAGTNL

hASBT = target: T2, hASBT (Homo sapiens, UniProt Q12908); assay: as above; assay type: cell-based; conditions: 10 μM 3H-TCA, Na+ medium, 10 min
T2 sequence (Q12908 1-348): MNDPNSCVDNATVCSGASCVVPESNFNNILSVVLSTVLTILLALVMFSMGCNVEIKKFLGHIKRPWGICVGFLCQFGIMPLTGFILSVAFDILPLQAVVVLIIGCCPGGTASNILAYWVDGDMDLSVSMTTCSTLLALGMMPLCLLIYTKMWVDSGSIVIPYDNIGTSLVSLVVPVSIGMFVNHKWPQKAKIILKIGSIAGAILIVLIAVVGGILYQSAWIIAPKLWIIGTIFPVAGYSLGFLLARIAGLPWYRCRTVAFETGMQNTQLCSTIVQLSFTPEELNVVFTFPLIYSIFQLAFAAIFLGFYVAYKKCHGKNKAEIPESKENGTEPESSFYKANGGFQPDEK

C[C@H](CCC(=O)NCCS(=O)(=O)O)[C@H]1CC[C@H]2[C@@H]3CC[C@@H]4C[C@H](OS(=O)(=O)O)CC[C@]4(C)[C@H]3CC[C@]12C [taurolithocholic acid-3-sulfate]
inhibition of uptake at 100 μM (skAsbt): significantly reduced ^3H-TCA transport activity in both skAsbt and hASBT

C[C@H](CCC(=O)NCCS(=O)(=O)O)[C@H]1CC[C@H]2[C@@H]3[C@@H](O)C[C@@H]4C[C@H](O)CC[C@]4(C)[C@H]3CC[C@]12C [TUDCA]
inhibition of uptake at 100 μM (hASBT): TUDCA effectively reduced ^3H-TCA transport activity in hASBT but not in skAsbt

C[C@H](CCCOS(=O)(=O)O)[C@H]1CC[C@H]2[C@@H]3[C@H](O)C[C@H]4C[C@H](O)CC[C@]4(C)[C@H]3C[C@H](O)[C@]12C [5α-PZS]
inhibition of uptake at 100 μM (hASBT): significantly reduced ^3H-TCA transport activity in both skAsbt and hASBT
inhibition of uptake at 100 μM (skAsbt): significantly reduced ^3H-TCA transport activity in both skAsbt and hASBT

C[C@H](CCCC(CO)COS(=O)(=O)O)[C@H]1CC[C@H]2[C@@H]3[C@H](O)C[C@H]4C[C@H](O)CC[C@]4(C)[C@H]3C[C@H](O)[C@]12C (stereo partly drawn) [5α-cyprinol sulfate]
inhibition of uptake at 100 μM (hASBT): significantly reduced ^3H-TCA transport activity in both skAsbt and hASBT
inhibition of uptake at 100 μM (skAsbt): significantly reduced ^3H-TCA transport activity in both skAsbt and hASBT

C[C@H](CCC(=O)NCC(=O)O)[C@H]1CC[C@H]2[C@@H]3[C@H](O)C[C@@H]4C[C@H](O)CC[C@]4(C)[C@H]3CC[C@]12C [GCDCA]
inhibition of uptake at 100 μM (hASBT): significantly reduced ^3H-TCA transport activity in both skAsbt and hASBT
inhibition of uptake at 100 μM (skAsbt): significantly reduced ^3H-TCA transport activity in both skAsbt and hASBT

C[C@H](CCC(=O)NCCS(=O)(=O)O)[C@H]1CC[C@H]2[C@@H]3[C@H](O)C[C@@H]4C[C@H](O)CC[C@]4(C)[C@H]3CC[C@]12C [TCDCA]
inhibition of uptake at 100 μM (hASBT): significantly reduced ^3H-TCA transport activity in both skAsbt and hASBT
inhibition of uptake at 100 μM (skAsbt): significantly reduced ^3H-TCA transport activity in both skAsbt and hASBT

C[C@H](CCC(=O)NCCS(=O)(=O)O)[C@H]1CC[C@H]2[C@@H]3CC[C@@H]4C[C@H](O)CC[C@]4(C)[C@H]3CC[C@]12C [taurolithocholic acid]
inhibition of uptake at 100 μM (hASBT): significantly reduced ^3H-TCA transport activity in both skAsbt and hASBT
inhibition of uptake at 100 μM (skAsbt): significantly reduced ^3H-TCA transport activity in both skAsbt and hASBT

O=C1OC(c2ccc(O)c(S(=O)(=O)O)c2)(c2ccc(O)c(S(=O)(=O)O)c2)c2c(Br)c(Br)c(Br)c(Br)c21 [bromosulfophtalein]
inhibition of uptake at 100 μM (hASBT): bromosulfophtalein significantly inhibited both transporters
inhibition of uptake at 100 μM (skAsbt): bromosulfophtalein significantly inhibited both transporters
